Values of other authors as cited in patent US6486118B1, “Detergent compositions” (Unilever Home & Personal Care USA, division of Conopco, Inc., priority 1999, dated 2002).
Where two headings read alike, the source gives them in different places.

[1] = other common materials, by contrast, at 20° C.

SMILES	Water Solubility (g/100 g) [1] [g/100 g]	Water Solubility (g/100 g) (highly water-soluble materials, grams of solid to form a saturated solution in 100 grams of water at 20° C.)
O=BO[O-].[Na+] [Sodium perborate anhydrous]	3.7	
O=P(O)(O)OP(=O)(O)OP(=O)(O)O [Sodium tripolyphosphate anhydrous]	15	
NC(N)=O [Urea]		>100
